Test results published in US20220162192A1 (ESCAPE Bio, Inc., priority 2019, published 2022).
Read-outs that look alike come from different tables or passages of the source.

Assays:
[1] = target: T1, Recombinant wild type LRRK2 protein (Homo sapiens, UniProt Q5S007); experiment: LanthaScreen Kinase Activity Assay (TR-FRET), wild type LRRK2; assay type: biochemical; conditions: 25 μM ATP, 400 nM LRRKtide, 2.9 nM kinase, 60 min at room temperature, read-out: LRRK2 WT IC50
T1 construct: purchased Life Technologies PR8604B
T1 sequence (Q5S007 whole entry): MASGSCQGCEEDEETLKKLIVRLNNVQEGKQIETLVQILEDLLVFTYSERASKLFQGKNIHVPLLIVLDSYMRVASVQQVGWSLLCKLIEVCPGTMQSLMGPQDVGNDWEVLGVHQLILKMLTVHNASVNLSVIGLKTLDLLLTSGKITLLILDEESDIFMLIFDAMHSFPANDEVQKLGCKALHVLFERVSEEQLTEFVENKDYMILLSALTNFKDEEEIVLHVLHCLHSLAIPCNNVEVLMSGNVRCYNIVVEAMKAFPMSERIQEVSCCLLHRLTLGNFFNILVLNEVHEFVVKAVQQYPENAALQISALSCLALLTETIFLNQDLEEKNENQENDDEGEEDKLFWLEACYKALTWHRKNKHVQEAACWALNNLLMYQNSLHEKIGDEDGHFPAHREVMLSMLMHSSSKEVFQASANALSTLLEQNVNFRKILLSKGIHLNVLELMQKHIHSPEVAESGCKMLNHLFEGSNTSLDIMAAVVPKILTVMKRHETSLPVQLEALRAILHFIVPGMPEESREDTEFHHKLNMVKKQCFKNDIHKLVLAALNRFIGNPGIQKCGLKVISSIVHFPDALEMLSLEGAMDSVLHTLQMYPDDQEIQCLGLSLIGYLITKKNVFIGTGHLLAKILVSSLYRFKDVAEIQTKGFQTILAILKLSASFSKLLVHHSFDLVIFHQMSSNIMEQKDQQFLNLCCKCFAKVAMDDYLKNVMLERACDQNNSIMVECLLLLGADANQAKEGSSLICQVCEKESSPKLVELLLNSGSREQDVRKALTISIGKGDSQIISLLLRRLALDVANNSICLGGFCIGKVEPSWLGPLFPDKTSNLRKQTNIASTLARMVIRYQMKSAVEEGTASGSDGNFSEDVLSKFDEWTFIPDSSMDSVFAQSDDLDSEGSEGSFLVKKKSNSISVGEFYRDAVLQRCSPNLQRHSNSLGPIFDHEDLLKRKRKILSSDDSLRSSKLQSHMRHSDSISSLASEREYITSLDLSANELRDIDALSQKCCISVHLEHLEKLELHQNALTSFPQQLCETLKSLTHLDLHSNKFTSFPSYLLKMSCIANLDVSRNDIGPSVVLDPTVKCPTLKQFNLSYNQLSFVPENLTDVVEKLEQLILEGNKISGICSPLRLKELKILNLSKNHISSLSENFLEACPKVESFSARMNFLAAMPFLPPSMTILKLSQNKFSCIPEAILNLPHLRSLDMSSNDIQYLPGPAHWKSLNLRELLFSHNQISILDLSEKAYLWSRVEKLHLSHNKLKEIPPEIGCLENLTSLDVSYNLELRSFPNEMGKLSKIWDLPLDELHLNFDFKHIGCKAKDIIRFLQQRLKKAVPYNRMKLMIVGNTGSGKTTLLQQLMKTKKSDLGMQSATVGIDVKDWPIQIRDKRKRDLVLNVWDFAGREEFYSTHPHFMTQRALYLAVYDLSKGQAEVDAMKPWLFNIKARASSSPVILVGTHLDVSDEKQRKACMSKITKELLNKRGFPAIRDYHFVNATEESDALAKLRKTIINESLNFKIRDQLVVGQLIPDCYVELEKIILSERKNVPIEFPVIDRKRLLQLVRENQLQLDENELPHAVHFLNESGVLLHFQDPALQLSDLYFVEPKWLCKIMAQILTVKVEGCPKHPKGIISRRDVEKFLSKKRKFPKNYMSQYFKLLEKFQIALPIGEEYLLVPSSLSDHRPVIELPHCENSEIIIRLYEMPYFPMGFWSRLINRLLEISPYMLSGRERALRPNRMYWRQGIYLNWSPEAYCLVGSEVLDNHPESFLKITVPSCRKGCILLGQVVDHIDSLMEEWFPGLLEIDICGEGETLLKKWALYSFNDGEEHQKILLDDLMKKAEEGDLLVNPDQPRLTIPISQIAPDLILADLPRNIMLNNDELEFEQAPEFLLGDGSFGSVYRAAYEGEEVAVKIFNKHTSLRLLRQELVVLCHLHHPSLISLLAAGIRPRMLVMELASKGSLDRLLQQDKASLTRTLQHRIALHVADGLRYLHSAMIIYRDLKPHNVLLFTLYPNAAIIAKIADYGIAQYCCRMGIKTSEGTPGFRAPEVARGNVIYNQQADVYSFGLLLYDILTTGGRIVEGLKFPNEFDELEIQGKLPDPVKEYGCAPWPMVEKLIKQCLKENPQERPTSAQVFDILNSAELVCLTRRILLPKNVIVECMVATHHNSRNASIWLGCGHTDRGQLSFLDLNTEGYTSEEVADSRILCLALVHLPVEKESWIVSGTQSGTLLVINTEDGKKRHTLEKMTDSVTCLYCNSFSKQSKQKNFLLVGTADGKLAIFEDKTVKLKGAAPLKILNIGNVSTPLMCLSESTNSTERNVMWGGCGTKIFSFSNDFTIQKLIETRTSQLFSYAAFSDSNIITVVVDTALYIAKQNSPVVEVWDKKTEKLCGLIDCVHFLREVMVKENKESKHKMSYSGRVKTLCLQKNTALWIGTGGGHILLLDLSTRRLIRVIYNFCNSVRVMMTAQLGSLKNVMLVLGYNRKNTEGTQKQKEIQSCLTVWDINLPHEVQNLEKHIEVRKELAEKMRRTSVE
Method in brief: (§1)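 Recombinant wild-type or G2019S LRRK2 (2.9 nM final) phosphorylated fluorescein-LRRKtide (400 nM) with 25 μM ATP in 50 mM Tris pH 8.5, 5 mM MgCl2, 1 mM EGTA, 0.01% Brij-35, 2 mM DTT for 60 min at RT. After EDTA stop, Tb-anti-pERM TR-FRET (520/495 nm ratio) was read. IC50 values came from 11-point, 3-fold compound dilutions.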

[2] = target: T2, Recombinant G2019S-LRRK2 protein (Homo sapiens, UniProt Q5S007, G2019S); experiment: LanthaScreen Kinase Activity Assay (TR-FRET), G2019S-LRRK2; assay type: biochemical; conditions: class symbols; 25 μM ATP, 400 nM LRRKtide, 2.9 nM kinase, 60 min at room temperature
T2 construct: purchased Life Technologies PV4881
T2 sequence (Q5S007 whole entry G2019S): as the sequence (Q5S007 whole entry) above, with G2019S counted along it
Method in brief: as §1

Compound | IC50 ([1]; class symbols) | IC50 [2] | IC50 ([1]; numeric bound instead of class symbol)
Cc1cn2cncc2cc1C(=O)Nc1ccc2[nH]nc(-c3ccccc3)c2c1 [Example 52, 6-Methyl-N-(3-phenyl-1H-indazol-5-yl)imidazo[1,5-a]pyridine-7-carboxamide] | ≤ 100 nM | ≤ 100 nM | 
Cc1cccc(-c2n[nH]c3ccc(NC(=O)c4c(C)cc5cnnn5c4C)cc23)c1C [Example 47, N-(3-(2,3-Dimethylphenyl)-1H-indazol-5-yl)-5,7-dimethyl-[1,2,3]triazolo[1,5-a]pyridine-6-carboxamide] | 1000 to 10000 nM | 100 to 1000 nM | 
Cn1ncc2c(F)c(C(=O)Nc3ccc4[nH]nc(C(F)(F)F)c4c3)c(F)cc21 [Example 115, 4,6-Difluoro-1-methyl-N-(3-(trifluoromethyl)-1H-indazol-5-yl)-1H-indazole-5-carboxamide] | 100 to 1000 nM | ≤ 100 nM | 
Cc1cc2[nH]cnc2cc1C(=O)Nc1ccc2[nH]nc(Br)c2c1 [Example 18, N-(3-Bromo-1H-indazol-5-yl)-6-methyl-1H-benzo[d]imidazole-5-carboxamide] | 100 to 1000 nM | 100 to 1000 nM | 
Cc1cc2cnsc2nc1C(=O)Nc1ccc2[nH]nc(-c3cnco3)c2c1 [Example 168, 5-Methyl-N-(3-(oxazol-5-yl)-1H-indazol-5-yl)isothiazolo[5,4-b]pyridine-6-carboxamide] | ≤ 100 nM | ≤ 100 nM | 
O=C(Nc1ccc2[nH]nc(-c3ccoc3)c2c1)c1cnc2nccn2c1 [Example 129, N-(3-(Furan-3-yl)-1H-indazol-5-yl)imidazo[1,2-a]pyrimidine-6-carboxamide] | 100 to 1000 nM | ≤ 100 nM | 
COc1n[nH]c2ccc(NC(=O)c3c(F)cc4c(cnn4C)c3F)cc12 [Example 106, 4,6-Difluoro-N-(3-methoxy-1H-indazol-5-yl)-1-methyl-1H-indazole-5-carboxamide] | 1000 to 10000 nM | ≤ 100 nM | 
Cn1ncc2c1CCC(C(=O)Nc1ccc3[nH]nc(-c4ccoc4)c3c1)C2 (single isomer, unassigned) [Example 161b] | 100 to 1000 nM | ≤ 100 nM | 
CC1(C)c2nncn2CCN1C(=O)Nc1ccc2[nH]nc(-c3ccoc3)c2c1 [Example 172, N-(3-(Furan-3-yl)-1H-indazol-5-yl)-8,8-dimethyl-5,6-dihydro-[1,2,4]triazolo[4,3-a]pyrazine-7(8H)-carboxamide] | 100 to 1000 nM | 100 to 1000 nM | 
Cc1cc2cnnn2c(C)c1C(=O)Nc1ccc2[nH]nc(-c3ccccc3)c2c1 [Example 48, 5,7-Dimethyl-N-(3-phenyl-1H-indazol-5-yl)-[1,2,3]triazolo[1,5-a]pyridine-6-carboxamide] | ≤ 100 nM | ≤ 100 nM | 
Cc1c(C(=O)Nc2ccc3[nH]nc(-c4ccoc4)c3c2)cnc2cncn12 [Example 113, N-(3-(Furan-3-yl)-1H-indazol-5-yl)-4-methylimidazo[1,5-a]pyrimidine-3-carboxamide] | ≤ 100 nM | ≤ 100 nM | 
Cc1cc2nn[nH]c2cc1C(=O)Nc1ccc2[nH]nc(-c3cccc(N4CCOCC4)c3)c2c1 [Example 2, 5-Methyl-N-(3-(3-morpholinophenyl)-1H-indazol-5-yl)-1H-benzo[d][1,2,3]triazole-6-carboxamide] | ≤ 100 nM | ≤ 100 nM | 
Cc1cc(-c2n[nH]c3ccc(NC(=O)c4c(F)cc5c(cnn5C)c4F)cc23)n(C)n1 [Example 79, N-(3-(1,3-Dimethyl-1H-pyrazol-5-yl)-1H-indazol-5-yl)-4,6-difluoro-1-methyl-1H-indazole-5-carboxamide] | 1000 to 10000 nM | 100 to 1000 nM | 
Cn1ncc2c(F)c(C(=O)Nc3ccc4[nH]nc(Cc5ccccc5)c4c3)c(F)cc21 [Example 140, N-(3-Benzyl-1H-indazol-5-yl)-4,6-difluoro-1-methyl-1H-indazole-5-carboxamide] | 1000 to 10000 nM | 100 to 1000 nM | 
Cn1ncc2cc(C(=O)Nc3ccc4[nH]nc(-c5ccccc5)c4c3)ccc21 [Example 107, 1-Methyl-N-(3-phenyl-1H-indazol-5-yl)-1H-indazole-5-carboxamide] | 1000 to 10000 nM | 100 to 1000 nM | 
COc1ccccc1-c1n[nH]c2ccc(NC(=O)c3c(F)cc4c(cnn4C)c3F)cc12 [Example 85, 4,6-Difluoro-N-(3-(2-methoxyphenyl)-1H-indazol-5-yl)-1-methyl-1H-indazole-5-carboxamide] | 1000 to 10000 nM | ≤ 100 nM | 

Results, then the compound that gave them:

IC50 ([1]; class symbols) | IC50 [2] | IC50 ([1]; numeric bound instead of class symbol) | Compound
100 to 1000 nM | ≤ 100 nM |  | COc1cnccc1-c1n[nH]c2ccc(NC(=O)c3c(F)cc4c(cnn4C)c3F)cc12 [Example 103, 4,6-Difluoro-N-(3-(3-methoxypyridin-4-yl)-1H-indazol-5-yl)-1-methyl-1H-indazole-5-carboxamide]
≤ 100 nM | ≤ 100 nM |  | Cn1ncc2c(F)c(C(=O)Nc3ccc4[nH]nc(-c5ccncn5)c4c3)c(F)cc21 [Example 73, 4,6-Difluoro-1-methyl-N-(3-(pyrimidin-4-yl)-1H-indazol-5-yl)-1H-indazole-5-carboxamide]
100 to 1000 nM | 100 to 1000 nM |  | O=C(Nc1ccc2[nH]nc(-c3ccoc3)c2c1)c1ccn2ccnc2c1 [Example 118, N-(3-(Furan-3-yl)-1H-indazol-5-yl)imidazo[1,2-a]pyridine-7-carboxamide]
100 to 1000 nM | ≤ 100 nM |  | Cn1ncc2c(F)c(C(=O)Nc3ccc4[nH]nc(-c5ccccc5)c4c3)c(F)cc21 [Example 50, 4,6-Difluoro-1-methyl-N-(3-phenyl-1H-indazol-5-yl)-1H-indazole-5-carboxamide]
100 to 1000 nM | ≤ 100 nM |  | Cc1cccc(-c2n[nH]c3ccc(NC(=O)c4c(F)cc5c(cnn5C)c4F)cc23)n1 [Example 71, 4,6-Difluoro-1-methyl-N-(3-(6-methylpyridin-2-yl)-1H-indazol-5-yl)-1H-indazole-5-carboxamide]
1000 to 10000 nM | 100 to 1000 nM |  | COc1ccc(C)c(-c2n[nH]c3ccc(NC(=O)c4c(F)cc5c(cnn5C)c4F)cc23)c1 [Example 90, 4,6-Difluoro-N-(3-(5-methoxy-2-methylphenyl)-1H-indazol-5-yl)-1-methyl-1H-indazole-5-carboxamide]
≤ 100 nM | ≤ 100 nM |  | Cc1cc2cnnn2c(C)c1C(=O)Nc1ccc2[nH]nc(-c3ccco3)c2c1 [Example 155, N-(3-(Furan-2-yl)-1H-indazol-5-yl)-5,7-dimethyl-[1,2,3]triazolo[1,5-a]pyridine-6-carboxamide]
≤ 100 nM | ≤ 100 nM |  | Cn1ncc2c(F)c(C(=O)Nc3ccc4[nH]nc(-c5cccnc5)c4c3)c(F)cc21 [Example 32, 4,6-Difluoro-1-methyl-N-(3-(pyridin-3-yl)-1H-indazol-5-yl)-1H-indazole-5-carboxamide]
1000 to 10000 nM | 100 to 1000 nM |  | Cc1cc2c(C)nnn2c(C)c1C(=O)Nc1ccc2[nH]nc(C)c2c1 [Example 65, 3,5,7-Trimethyl-N-(3-methyl-1H-indazol-5-yl)-[1,2,3]triazolo[1,5-a]pyridine-6-carboxamide]
100 to 1000 nM | ≤ 100 nM |  | Cn1cc(-c2n[nH]c3ccc(NC(=O)c4c(F)cc5c(cnn5C)c4F)cc23)c(C(F)(F)F)n1 [Example 92, 4,6-Difluoro-1-methyl-N-(3-(1-methyl-3-(trifluoromethyl)-1H-pyrazol-4-yl)-1H-indazol-5-yl)-1H-indazole-5-carboxamide]
≤ 100 nM | ≤ 100 nM |  | Cc1cc2cncn2cc1C(=O)Nc1ccc2[nH]nc(-c3ccoc3)c2c1 [Example 146, N-(3-(Furan-3-yl)-1H-indazol-5-yl)-7-methylimidazo[1,5-a]pyridine-6-carboxamide]
 | 1000 to 10000 nM | > 10000 nM | Cn1ncc2c(F)c(C(=O)Nc3ccc4[nH]nc(N5CC(C(=O)O)C5)c4c3)c(F)cc21 [Example 142, 1-(5-(4,6-difluoro-1-methyl-1H-indazole-5-carboxamido)-1H-indazol-3-yl)azetidine-3-carboxylic acid]
≤ 100 nM | ≤ 100 nM |  | Cc1cc2cncn2c(C)c1C(=O)Nc1ccc2[nH]nc(-c3ccoc3)c2c1 [Example 151, N-(3-(Furan-3-yl)-1H-indazol-5-yl)-5,7-dimethylimidazo[1,5-a]pyridine-6-carboxamide]
≤ 100 nM | ≤ 100 nM |  | Cc1cc2c(cnn2C)nc1C(=O)Nc1ccc2[nH]nc(-c3cnco3)c2c1 [Example 160, 1,6-Dimethyl-N-(3-(oxazol-5-yl)-1H-indazol-5-yl)-1H-pyrazolo[4,3-b]pyridine-5-carboxamide]
100 to 1000 nM | ≤ 100 nM |  | Cc1nc2ccc(C(=O)Nc3ccc4[nH]nc(-c5ccoc5)c4c3)cc2o1 [Example 134, N-(3-(Furan-3-yl)-1H-indazol-5-yl)-2-methylbenzo[d]oxazole-6-carboxamide]
100 to 1000 nM | ≤ 100 nM |  | Cc1cc2nncn2c(C)c1C(=O)Nc1ccc2[nH]nc(C)c2c1 [Example 61, 5,7-Dimethyl-N-(3-methyl-1H-indazol-5-yl)-[1,2,4]triazolo[4,3-a]pyridine-6-carboxamide]
1000 to 10000 nM | ≤ 100 nM |  | Cc1cc2cnnn2c(C)c1C(=O)Nc1ccc2[nH]nc(C)c2c1 [Example 49, 5,7-Dimethyl-N-(3-methyl-1H-indazol-5-yl)-[1,2,3]triazolo[1,5-a]pyridine-6-carboxamide]
100 to 1000 nM | ≤ 100 nM |  | Cc1nc2cncn2c(C)c1C(=O)Nc1ccc2[nH]nc(-c3ccoc3)c2c1 [Example 112, N-(3-(Furan-3-yl)-1H-indazol-5-yl)-2,4-dimethylimidazo[1,5-a]pyrimidine-3-carboxamide]
